From patent US8658801B2, “Pesticides containing a bicyclic bisamide structure” (Syngenta Crop Protection, LLC, priority 2006, dated 2014)

Assays:
[1] = system: Spodoptera littoralis (Egyptian Cotton Leafworm); assay: Example B1: activity against Spodoptera littoralis, larvicide, feeding/residual contact, preventive (cotton leaf discs); type: in vivo; details: foliar, 72 h, 3 days after treatment, L1 larvae
Text: Activity Against Spodoptera littoralis (Egyptian Cotton Leafworm)
(§1) (Larvicide, Feeding/Residual Contact Activity, Preventive)
The samples are checked for mortality, repellent effect, feeding behaviour, and growth regulation 3 days after treatment. In this test, compounds listed in Table P above show good activity. In particular compounds P.1, P.2, P.3, P.4, P.5, P.6, P.7, P.9, P.10, P.11, P.12, P.13, P.15, P.16, P.17, P.18, P.19, P.20, P.21, P.22, P.23, P.24, P.25, P.26, P.27, P.28, P.29, P.30, P.31, P.32, P.33, P.34, P.35, P.36, P.37, P.38, P.39, P.40, P.41, P.42, P.43, P.44, P.45, P.46, P.47, P.48, P.49, P.50, P.51, P.52, P.53, P.54, P.55, P.56, P.57, P.58, P.59, P.60, P.61, P.63, P.64, P.67, P.68 and P.70 show an activity of over 80% at a concentration of 400 ppm.

[2] = system: Heliothis virescens (Tobacco Budworm); assay: Example B2: activity against Heliothis virescens, ovo-larvicide, feeding/contact, curative; type: in vivo; details: 96 h, 4 days incubation, eggs 0-24 h old
Protocol: Activity Against Heliothis virescens (Tobacco Budworm)
(Ovo-Larvicide, Feeding/Contact Activity, Curative)
Eggs (0-24 h old) are placed in 24-well microtiter plate on artificial diet and treated with test solutions by pipetting. After an incubation period of 4 days, samples are checked for egg mortality, larval mortality, and growth regulation.

[3] = system: Plutella xylostella (Diamond Back Moth); assay: Example B3: Plutella xylostella, larvicide, feeding/residual contact, preventive (artificial diet MTP); type: in vivo; details: 120 h, 5 days incubation, L2 larvae
Protocol: Plutella xylostella (Diamond Back Moth)
as §1
24-well microtiter plate (MTP) with artificial diet is treated with test solutions by pipetting. After drying, the MTP's are infested with larvae (L2)(10-15 per well). After an incubation period of 5 days, samples are checked for larval mortality, antifeedant and growth regulation. In this test, compounds listed in Table P above show good activity. In particular compounds P.1, P.2, P.3, P.4, P.5, P.6, P.7, P.9, P.10, P.11, P.12, P.13, P.15, P.16, P.17, P.18, P.19, P.20, P.21, P.22, P.23, P.25, P.26, P.27, P.28, P.29, P.30, P.31, P.32, P.33, P.34, P.35, P.36, P.37, P.38, P.39, P.40, P.41, P.42, P.43, P.44, P.46, P.47, P.48, P.49, P.50, P.51, P.52, P.53, P.54, P.55, P.56, P.57, P.58, P.59, P.60, P.61, P.63, P.64, P.67, P.68, P.69 P.70, P.72, P.74, P.77, P78 and P.79 show an activity of over 80% at a concentration of 400 ppm.

[4] = system: Diabrotica balteata (Corn Root Worm); assay: Example B4: Diabrotica balteata, larvicide, feeding/residual contact, preventive; type: in vivo; details: 120 h, 5 days incubation, L2 larvae
Protocol: Diabrotica balteata (Corn Root Worm)
as §1
After drying, the MTP's are infested with larvae (L2)(6-10 per well). After an incubation period of 5 days, samples are checked for larval mortality, antifeedant and growth regulation. In this test, compounds listed in Table P above show good activity. In particular compounds P.1, P.2, P.5, P.6, P.10, P.11, P.12, P.13, P.15, P.16, P.17, P.18, P.19, P.24, P.25, P.27, P.28, P.29, P.30, P.31, P.33, P.34, P.35, P.37, P.38, P.39, P.42, P.43, P.44, P.45, P.46, P.47, P.48, P.49, P.50, P.52, P.53, P.65, P.67, P.68, P.69, P.70, P.71, P.72, P.75, P.78, and P.79 show an activity of over 80% at a concentration of 400 ppm.

[5] = system: Cydia pomonella (Codling Moth); assay: Example B8: activity against Cydia pomonella (paraffin-coated diet cubes); type: in vivo; details: 336 h, 14 days incubation at 26° C.
Protocol: Activity Against Cydia pomonella (Codling Moth)
Standard Cydia diet cubes (1.5 cm width) are pierced with a tooth-pick and are immersed in liquid paraffin (ca. 80° C.). After the paraffin coat has hardened, an aqueous emulsion containing 400 ppm of active ingredient is applied using a De Vilbis sprayer (25 ml, 1 bar). After the spray coating has dried, the cubes are put into plastic containers which are then populated with two freshly hatched Cydia pomonella (1st instar). The containers are then closed with a plastic cap. After 14 days incubation at 26° C. and 40-60% relative humidity, the survival rate of the caterpillars as well as their growth regulation is determined. In this test, compounds listed in Table P above show good activity. In particular compounds P.10, P.11, P.12, P.18, P.19, P.20, P.29, P.30, P.31, P.32, P.33, P.34, P.35, P.37, P.38, P.39, P.42, and P.43 show an activity of over 80% at a concentration of 400 ppm.

[6] = system: Frankliniella occidentalis (Western Flower Thrips); assay: Example B9: activity against Frankliniella occidentalis (bean leaf discs or bean plants); type: in vivo; details: foliar, 6 days (leaf discs) or 14 days (plants) after infestation
Protocol: Activity Against Frankliniella occidentalis (Western Flower Thrips)
Bean leaf discs on agar in petri dishes or bean plants in a spray chamber are treated with diluted test solutions. After drying leaf discs are cut and placed in plastic cups on the surface of an agar layer and infested with mixed population. 6 days (leaf discs) or 14 days (plants) after the infestation, samples are checked for reduction of treated population and compared to the non treated population.

[7] = system: Thrips tabaci (Onion Thrips); assay: Example B7: activity against Thrips tabaci, mixed population, feeding/residual contact, preventive; details: 144 h, read-out: activity
[8] = system: Myzus persicae (Green Peach Aphid); assay: Example B6: activity against Myzus persicae, mixed population, systemic/feeding, curative (pea seedling roots); details: 144 h, read-out: activity
[9] = system: Myzus persicae (Green Peach Aphid); assay: Example B5: activity against Myzus persicae, mixed population, feeding/residual contact, preventive (sunflower leaf discs); details: foliar, 144 h, read-out: activity
[10] = system: Aphis craccivora (Pea Aphid); assay: Example B11: activity against Aphis craccivora, mixed population, systemic/feeding; type: in vivo; details: 144 h, 6 days, roots in test solution (systemic)
Text: Activity Against Aphis craccivora (Pea Aphid)
(Mixed Population, Systemic/Feeding)
6 days later, samples are checked for mortality.

Measured: pest or weed control at 400 ppm

O=C(NC1(C2CC2)CC1)c1c(NC(=O)c2cc(C(F)(F)F)nn2-c2ncccc2Cl)c(Cl)cc2cn[nH]c12 [P.12]
not listed: [10]
> 80%: all other assays above

O=C(NC1(C2CC2)CC1)c1c(NC(=O)c2cc(C(F)F)nn2-c2ncccc2Cl)c(Cl)cc2cn[nH]c12 [P.38]
not listed: [7] | [8] | [10]
> 80%: all other assays above

Cc1ccc2c(C(=O)NC(C)C)c(NC(=O)c3cc(C(F)(F)F)nn3-c3ncccc3Cl)c(C)cc2n1 [P.20]
> 80%: [1] | [2] | [3] | [5]

O=C(NCC1CC1)c1c(NC(=O)c2cc(C(F)(F)F)nn2-c2ncccc2Cl)c(Br)cc2cn[nH]c12 [P.19]
not listed: [7] | [10]
> 80%: all other assays above

O=C(NC1(C2CC2)CC1)c1c(NC(=O)c2cc(Cl)nn2-c2ncccc2Cl)c(Cl)cc2cn[nH]c12 [P.45, 5-chloro-6-{[5-chloro-2-(3-chloro-pyridin-2-yl)-2H-pyrazole-3-carbonyl]-amino}-1H-indazole-7-carboxylic acid bicyclopropyl-1-ylamide]
not listed: [2] | [3] | [5]
> 80%: all other assays above

Cc1cc2cn[nH]c2c(C(=O)NC(C)C)c1NC(=O)c1cc(OCC(F)(F)F)nn1-c1ncccc1Cl [P.52, 6-{[2-(3-chloro-pyridin-2-yl)-5-(2,2,2-trifluoro-ethoxy)-2H-pyrazole-3-carbonyl]-amino}-5-methyl-1H-indazole-7-carboxylic acid isopropylamide]
not listed: [5]
> 80%: all other assays above

O=C(NC1(C2CC2)CC1)c1c(NC(=O)c2cc(C(F)(F)F)nn2-c2ncccc2Cl)c(Br)cc2cn[nH]c12 [P.18]
not listed: [8] | [10]
> 80%: all other assays above

CNC(=O)c1c(NC(=O)c2cc(C(F)(F)F)nn2-c2ncccc2Cl)c(Cl)cc2cn[nH]c12 [P.29]
not listed: [6] | [10]
> 80%: all other assays above

O=C(NCC1CC1)c1c(NC(=O)c2cc(C(F)(F)F)nn2-c2ncccc2Cl)c(Cl)cc2cn[nH]c12 [P.11]
not listed: [7] | [8] | [10]
> 80%: all other assays above

O=C(NC1CC12CC2)c1c(NC(=O)c2cc(C(F)(F)F)nn2-c2ncccc2Cl)c(Cl)cc2cn[nH]c12 (stereo not shown) [P.31]
> 80%: [1] | [2] | [3] | [4] | [5] | [9]

CCNC(=O)c1c(NC(=O)c2cc(Cl)nn2-c2ncccc2Cl)c(Br)cc2cn[nH]c12 [P.37]
not listed: [6] | [10]
> 80%: all other assays above

CSCC(C)(C)NC(=O)c1c(NC(=O)c2cc(C(F)(F)F)nn2-c2ncccc2Cl)c(Cl)cc2cn[nH]c12 [P.13]
not listed: [5]
> 80%: all other assays above

CC1(NC(=O)c2c(NC(=O)c3cc(C(F)(F)F)nn3-c3ncccc3Cl)c(Cl)cc3cn[nH]c23)CSC1 [P.32]
not listed: [4] | [6] | [10]
> 80%: all other assays above
